# Target: T1, human cloned 5-HT1A receptors (Homo sapiens, UniProt P08908)
# T1 construct: expressed in transfected cells
# T1 sequence (P08908 1-422): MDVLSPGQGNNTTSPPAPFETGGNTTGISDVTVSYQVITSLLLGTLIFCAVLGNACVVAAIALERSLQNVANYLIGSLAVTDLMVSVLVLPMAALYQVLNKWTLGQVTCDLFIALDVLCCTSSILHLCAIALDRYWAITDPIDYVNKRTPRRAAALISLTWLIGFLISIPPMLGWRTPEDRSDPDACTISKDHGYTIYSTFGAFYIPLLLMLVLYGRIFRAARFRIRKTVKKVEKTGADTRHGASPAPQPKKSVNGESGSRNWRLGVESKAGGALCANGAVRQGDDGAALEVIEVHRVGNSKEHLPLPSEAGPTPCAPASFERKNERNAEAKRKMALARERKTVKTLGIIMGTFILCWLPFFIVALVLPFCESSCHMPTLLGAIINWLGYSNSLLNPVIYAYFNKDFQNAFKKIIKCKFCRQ
# Test: [35S]GTPγS binding, membranes of HeLa cells transfected with human cloned 5-HT1A receptors
# Format: biochemical
# Conditions: 5-HT maximal stimulation taken as 100%
# Procedure: A genomic clone coding for the human 5HT1A-serotonergic receptor was stably transfected in a human cell line (HeLa). HeLa cells were grown as monolayers in Dulbecco's modified Eagle medium (DMEM), containing 10% fetal bovine serum, gentamycin (0.1 mg/ml) and 5% carbon dioxide, at 37° C. The cells were detached from the growth flask at 95% confluence by a cell scraper and were lysed in cold 5 mM Tris and 5 mM EDTA buffer (pH 7.4). The homogenates were centrifuged at 40000×g×20 minutes and the pellets were resuspended in a small volume of cold 5 mM Tris and 5 mM EDTA buffer (pH 7.4) and immediately frozen and stored at −70° C. until use.
# [^35S]GTPγS binding: on the experimental day, cell membranes from HeLa cells transfected with human cloned 5-HT1A receptors were resuspended in buffer pH 7.4 containing 20 mM HEPES, 3 mM MgCl2 and 120 mM NaCl (Stanton, J. A.; Beer, M. S. Eur. J. Pharmacol. 320, 267–275, 1997). The membranes were incubated with 10 μM GDP and decreasing concentrations of test drugs (from 100 μM to 0.1 nM) or decreasing concentrations of 5-HT (from 100 μM to 0.1 nM, reference curve) for 20 min at 30° C. in a final volume of about 0.25 ml. [^35S]GTPγS ([…] in 10 μl) was added to samples and incubated for a further 30 min at 30° C. Non-specific binding was determined in the presence of 10 μM GTPγS. The incubation was stopped by addition of ice-cold HEPES buffer and rapid filtration on Unifilter GF/C filters, using a Filtermate cell harvester (Packard). The filters were washed four times with total 1.2 ml of same buffer. Radioactivity was counted by liquid scintillation spectrometry with efficiency >90% (TopCount Packard). Stimulation of [^35S]GTPγS binding induced by the compounds tested was espressed as % increase in binding above basal value, being the maximal stimulation observed with 5-HT taken as 100%. The concentration-response curve of the agonistic activity was analyzed by non linear fitting program (De Lean et al., Am. J. Physiol. 235, E97-E102, 1978).
# A stimulation of [^35S]GTPγS binding represented the functional correlate of the binding of an agonist compound at the 5-HT1A receptors. Stimulation induced by the endogenous ligand 5-HT was considered the maximal stimulation attainable.
row,SMILES,Functional effect ([35S]GTPγS binding)
1,"COc1ccccc1N1CCN(CC[C@@H](c2ccccc2F)[C@H](O)C2CCCCC2)CC1 (racemic) [Ex. 1, 1-[(SR-RS)-4-cyclohexyl-4-hydroxy-3-(2-fluorophenyl)-butyl]-4-(2-methoxyphenyl)-piperazine]",Neutral antagonist
2,"COc1ccccc1N1CCN(CC[C@H](c2ccccc2)[C@@H](O)C2CCCCC2)CC1 (racemic) [Ex. 5, 1-[(RS,SR)-4-Cyclohexyl-4-hydroxy-3-phenyl-butyl]-4-(2-methoxyphenyl)-piperazine, reference compound]",Neutral antagonist
3,"COc1ccccc1N1CCN(CC[C@H](c2ccccc2F)[C@@H](O)C2CCCCC2)CC1 [Ex. 1Y, 1-[(3R,4S)-4-cyclohexyl-4-hydroxy-3-(2-fluorophenyl)-butyl]-4-(2-methoxyphenyl)-piperazine]",Neutral antagonist
4,"COc1ccccc1N1CCN(CC[C@H](c2ccccc2F)[C@H](O)C2CCCCC2)CC1 [Ex. 2X, 1-[(3R,4R)-4-cyclohexyl-4-hydroxy-3-(2-fluorophenyl)-butyl]-4-(2-methoxyphenyl)-piperazine]",Neutral antagonist
